Source: PubChem BioAssay (NCI)
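Cultured in 96-well plates, cells were exposed to test compound for 48 hours across five concentrations. GI50 = concentration required for 50% inhibition of growth. TGI: total growth inhibition.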

Assays:
Assay in all cases: NCI tumour cell line growth inhibition, 48 h
OVCAR-8 ovarian = tested on: OVCAR-8 ovarian
RPMI-8226 leukemia = tested on: RPMI-8226 leukemia
HOP-62 NSCLC = tested on: HOP-62 NSCLC
CAKI-1 renal = tested on: CAKI-1 renal
SK-MEL-28 melanoma = tested on: SK-MEL-28 melanoma
CCRF-CEM leukemia = tested on: CCRF-CEM leukemia
UACC-257 melanoma = tested on: UACC-257 melanoma
HS 578T breast = tested on: HS 578T breast

| Structure (SMILES) | GI50 (OVCAR-8 ovarian) | TGI (OVCAR-8 ovarian) | GI50 (RPMI-8226 leukemia) | TGI (RPMI-8226 leukemia) | GI50 (HOP-62 NSCLC) | TGI (HOP-62 NSCLC) | GI50 (CAKI-1 renal) | TGI (CAKI-1 renal) | GI50 (SK-MEL-28 melanoma) | TGI (SK-MEL-28 melanoma) | GI50 (CCRF-CEM leukemia) | TGI (CCRF-CEM leukemia) | GI50 (UACC-257 melanoma) | TGI (UACC-257 melanoma) | GI50 (HS 578T breast) | TGI (HS 578T breast) |
| --- | --- | --- | --- | --- | --- | --- | --- | --- | --- | --- | --- | --- | --- | --- | --- | --- |
| Fc1ccc(/C=N/n2c(-c3ccc(F)c(Cl)c3)n[nH]c2=S)cc1 | 34.7 µM | > 100 µM | 19.8 µM | 43.2 µM | 16.7 µM | 31.4 µM | 47.8 µM | > 100 µM | 42.1 µM | > 100 µM | 32.2 µM | 96.6 µM | 30.6 µM | 83 µM | 28.8 µM | 97.3 µM |
| CSc1ccc(C2=NN(C(C)=O)C(c3ccc(-c4ccc(Cl)cc4)o3)C2)cc1 (stereo not given) | 81.7 µM | > 100 µM | 23.8 µM | > 100 µM | 42.4 µM | > 100 µM | 31.1 µM | > 100 µM | 86.2 µM | > 100 µM | 44.2 µM | > 100 µM | 77 µM | > 100 µM | 49.8 µM | > 100 µM |
| O=C1C(OCCOc2ccccc2)=C(OCCOc2ccccc2)C(=O)c2ccccc21 | > 100 µM | > 100 µM | > 100 µM | > 100 µM | 9.26 µM | > 100 µM | 12.5 µM | > 100 µM | 16.5 µM | > 100 µM | > 100 µM | > 100 µM | 3.72 µM | > 100 µM | 8.96 µM | > 100 µM |
| C[C@@H]1O[C@@H](O[C@@H]2[C@@H](O)[C@H](OCCc3ccc(O)c(O)c3)O[C@H](CO)[C@H]2OC(=O)/C=C/c2ccc(O)c(O)c2)[C@H](O)[C@H](OC2OC[C@](O)(CO)[C@H]2O)[C@H]1O (stereo not given in full) | 18.7 µM | 40 µM | 34.9 µM | > 100 µM | > 100 µM | > 100 µM | 24.8 µM | 42.5 µM | > 100 µM | > 100 µM |  |  | 27 µM | 90.1 µM | > 100 µM | > 100 µM |
| COc1cccc(Oc2ccccc2NC(=O)CNC(=O)c2cccc3ccccc23)c1 | 0.684 µM | > 25 µM | 0.953 µM | 13.7 µM | 0.302 µM | > 25 µM | 0.917 µM | > 25 µM | 4.35 µM | > 25 µM | 0.36 µM | > 25 µM |  |  | 0.381 µM | > 25 µM |
| COc1cc(-c2nn(-c3cccc(NC(=O)CCN4CCN(Cc5ccccc5)CC4)c3)cc2-c2ccncc2)ccc1Cl | 2.68 µM | 11.1 µM |  |  | 1.38 µM | 12.4 µM |  |  | 1.33 µM | 2.84 µM | 0.691 µM | > 100 µM | 1.7 µM | 3.55 µM | 1.02 µM | 4.34 µM |
| O=c1c2cc(F)ccc2sc2c(NCCCNCCO)nc3ccccc3c12 |  |  | 2.08 µM | 4.63 µM | 1.77 µM | 3.69 µM | 1.61 µM | 2.97 µM | 1.75 µM | 3.25 µM | 2.02 µM | 4.76 µM | 1.98 µM | 3.94 µM | 1.7 µM | 3.74 µM |
| Cc1ccc(C2C3Cc4ccccc4C3=NN2c2ccc(S(=O)(=O)/N=c3\scc(-c4ccccc4)n3-c3ccccc3)cc2)cc1 (stereo not given) | 21.9 µM | 58.5 µM | 13.4 µM | 35.6 µM | 40.2 µM | > 100 µM | 18.6 µM | 44.7 µM |  |  | 17.1 µM | 44 µM | 20.4 µM | 43.3 µM | 17.2 µM | 44.8 µM |
| Nc1n[nH]c2ccc([C@@H]3Nc4cc5c(cc4[C@H]4C6CCC(C6)[C@@H]34)C(=O)NC5)cc12 (stereo not given in full) | 0.445 µM | > 100 µM |  |  | 0.513 µM | > 100 µM | 0.498 µM | > 100 µM | 4.17 µM | > 100 µM | 0.323 µM | > 100 µM | > 100 µM | > 100 µM | 0.484 µM | > 100 µM |
| COc1cc2c(cc1F)C(c1ccccc1Cl)=Nc1c(n[nH]c1C)N2 | 6.29 µM | 30.4 µM |  |  | 1.31 µM | 19.1 µM | 0.609 µM | 14.7 µM | 5.66 µM | 20.4 µM | 0.982 µM | > 100 µM | 11.1 µM | 25.4 µM | 0.214 µM | 0.838 µM |
| COc1ccc(/C=C(\C)[N+](=O)[O-])cc1OC | 2.61 µM | 6.29 µM | 2.3 µM | 5.59 µM | 5.08 µM | 16.4 µM | 1.88 µM | 3.89 µM | 1.71 µM | 3.44 µM |  |  | 1.88 µM | 3.5 µM | 3.5 µM | 15.9 µM |
| C=C1[C@@H](O)O[C@H]2[C@H]1C[C@H](OC(C)=O)[C@]13C(=O)O[C@H]4C[C@](C)(O)[C@H]([C@H]41)C31C=C(C)[C@]2(O)O1 | 22.7 µM | 58.8 µM | 24.2 µM | > 100 µM |  |  | 0.516 µM | 34.6 µM | 61 µM | > 100 µM | 18.9 µM | > 100 µM | 25.6 µM | 87.2 µM |  |  |
| C/C(=N\O)c1cccc(Nc2cc(-n3ccnc3)c3ccccc3n2)c1 |  |  | 21.2 µM | > 100 µM | 16.6 µM | 31.3 µM | 11.2 µM | 32.9 µM | 14.3 µM | 29.8 µM | 24.9 µM | 64.5 µM |  |  | 17.2 µM | 60.9 µM |
| Fc1cccc(F)c1C(Nc1nncs1)Nc1nncs1 |  | > 100 µM |  | > 100 µM |  | > 100 µM |  | > 100 µM |  | > 100 µM |  |  |  | > 100 µM |  | > 100 µM |
| C[CH2][Hg][S]c1ccccc1C(=O)O |  |  | 1.28 µM | 4.24 µM | 2.58 µM | 12.3 µM | 0.316 µM | 1.47 µM | 1.71 µM | 3.69 µM | 0.291 µM | 2.74 µM | 1.18 µM | 2.45 µM | 2.08 µM | > 100 µM |
| Cc1[nH]nc(-c2ccon2)c1N=O |  | 31.6 µM |  | 17.1 µM |  | 41.9 µM |  | 60.5 µM |  | 43.1 µM |  |  |  | 31.7 µM |  | 80.7 µM |
